{
  "source": "patent US20220133738A1",
  "about": "“GENOTYPE AND DOSE-DEPENDENT RESPONSE TO AN ASBTI IN PATIENTS WITH BILE SALT EXPORT PUMP DEFICIENCY” (MIRUM PHARMACEUTICALS, INC., priority 2019, published 2022)",
  "assay_type_in_all_cases": "in vivo, human",
  "key": {"[1]": {"system": "children with progressive familial intrahepatic cholestasis (PFIC)", "test": "INDIGO phase 2 open-label efficacy and safety study of maralixibat in children with PFIC", "source_text": "The HRQoL used was the […] QUALITY OF LIFE INVENTORY (PedsQL)."}, "[2]": {"system": "overweight and obese adults", "test": "Dose-ranging phase 1 clinical study (NCT02475317): fecal bile acid excretion with maralixibat and volixibat", "settings": "for fBA excretion, mean change from baseline: baseline to day 6 and 7"}, "[3]": {"system": "adults with primary sclerosing cholangitis (PSC)", "test": "CAMEO 14-week single-arm open-label phase 2a study of maralixibat in primary sclerosing cholangitis", "protocol": "Participants were adults aged 18-80 years with a diagnosis of PSC. PSC diagnosis included a documented history of alkaline phosphatase (ALP) levels greater than 1.5 times above the upper limit of normal, biliary obstruction, and histological findings consistent with PSC diagnosis (if previously biopsied). The study enrolled 27 adults.\nEfficacy was assessed by measuring at baseline and throughout the study sBA concentration, serum 7αC4 concentration (a marker of de novo bile acid synthesis), serum aoutotaxin concentration, LDL-C concentration, serum total cholesterol concentration, serum liver enzyme concentrations, and pruritus severity. Pruritus severity was determined by calculating Adult Itch Reported Outcome (ITCHRO) weekly sum scores and average daily scores (mean score over a 7-day period). Participants self-reported the ITCHRO daily on a scale 0-10 (0=no pruritus; 10=most severe pruritus).\nOutcomes were assessed in the overall study population and in subgroups of participants (A) with any pruritus at baseline or (B) with an ITCHRO average daily score ≥4 out of 10 at baseline. Efficacy endpoints were based on change from baseline to week 14 or early termination (ET) and were analyzed using paired t-tests or Wilcoxon signed rank tests."}, "[4]": {"system": "children with progressive familial intrahepatic cholestasis (PFIC)", "test": "INDIGO phase 2 open-label efficacy and safety study of maralixibat in children with PFIC", "remark": "listed apart in the source"}, "[5]": {"settings": "individual participants A-F with ITCHRO daily score ≥4 at baseline, one line per participant"}, "[6]": {"settings": "participants with ITCHRO daily score ≥4 at baseline"}},
  "note": "Values joined by “and” are separate entries in the source; they are usually repeats but may differ in a detail not shown here. Equal values may be shown once.",
  "data": [
    {"smiles": "CCCCC1(CCCC)CS(=O)(=O)c2ccc(N(C)C)cc2[C@@H](c2ccc(OCc3ccc(C[N+]45CCN(CC4)CC5)cc3)cc2)[C@H]1O", "note": "[maralixibat]", "values": [
      {"measurement": "Multi-parameter Responders (n/N)", "setting": "[1]; Mild PFIC 2 (N = 7)", "result": "1/7"},
      {"measurement": "Multi-parameter Responders (n/N)", "setting": "[1]; Moderate PFIC 2 (N = 12)", "result": "6/12"},
      {"measurement": "Multi-parameter Responders (%)", "setting": "[1]; Non-truncating BSEP (N = 19)", "result": "(36.8%)"},
      {"measurement": "Multi-parameter Responders (n/N)", "setting": "[1]; Non-truncating BSEP (N = 19), response = >70% reduction or normalization in sBA and >1.0 reduction or <1.0 ITCHRO(OBS)", "result": "7/19"},
      {"measurement": "Multi-parameter Responders (n/N)", "setting": "[1]; Truncating BSEP (N = 6)", "result": "0/6"},
      {"measurement": "7αC4:sBA ratio", "setting": "[1]; high-dose responder, prior to administration of 560 μg/kg/day", "result": 12, "unit": "times baseline"},
      {"measurement": "Response (observed response)", "setting": "[1]; individual PFIC 2 participants, one line per Subject ID of Table 3, (No reponse [sic] / Rapid complete response / Good response), max dose 280 or 560 μg/kg/day", "result": "Rapid (4×) and No (18×) and Good"},
      {"measurement": "7αC4:sBA ratio, mean change from baseline at week 48", "setting": "[1]; low-dose responders (range, 5-3982)", "result": 1388, "unit": "times baseline ratio"},
      {"measurement": "7αC4 concentrations at 48 weeks relative to baseline", "setting": "[1]; non-responders (range, 0.5-6)", "result": 1.8, "unit": "× baseline"},
      {"measurement": "responders in long-term extension", "setting": "[1]; patients having an ABCB11 gene with a truncating mutation", "result": "no patients"},
      {"measurement": "patients with ≥1.0 pt. reduction in ITCHRO(OBS) score", "setting": "[1]; patients with non-truncating BSEP mutations, FIG. 6", "result": "10/19"},
      {"measurement": "sBA levels Normalized (±≤8.5 μmol/L), n", "setting": "[1]; responders (n = 6) by week 48", "result": 4},
      {"measurement": "Response", "setting": "[1]; subject 016054, moderate PFIC 2, wrapped cell r43-r46 reads 'No response until 560 reached'", "result": "No"},
      {"measurement": "PedsQL total score, change from baseline to week 48, mean", "setting": "[1]; week 48", "result": "+8.2"},
      {"measurement": "fBA excretion, mean change from baseline", "setting": "[2]; 10 mg dose (QD), 7 days", "result": 515, "unit": "µmol"},
      {"measurement": "fBA excretion, mean change from baseline", "setting": "[2]; 20 mg dose (QD), 7 days", "result": 532, "unit": "µmol"},
      {"measurement": "fBA excretion, mean change from baseline", "setting": "[2]; 50 mg BID, 7 days", "result": 1251, "unit": "µmol"},
      {"measurement": "fBA excretion, mean change from baseline", "setting": "[2]; 100 mg QD, 7 days", "result": 1144, "unit": "µmol"},
      {"measurement": "fBA excretion, dose dependence", "setting": "[2]; across tested doses, 7 days", "result": "increased in a dose-dependent manner"},
      {"measurement": "treatment-emergent adverse events", "setting": "[2]; all doses, 7 days", "result": "mild, and none were serious"},
      {"measurement": "Mean serum 7αC4", "setting": "[2]; baseline to day 7, greatest change at maralixibat 50 mg BID", "result": "increased"},
      {"measurement": "Mean sBA levels", "setting": "[2]; day 7 versus baseline", "result": "not elevated"},
      {"measurement": "tolerability", "setting": "[3]; adults with PSC, 14 weeks", "result": "well tolerated"},
      {"measurement": "participants with worsening of pruritus by >1 point", "setting": "[3]; baseline to week 14", "result": "No participants"},
      {"measurement": "Changes in serum total bilirubin, alanine aminotransferase, aspartate aminotransferase, and alkaline phosphatase concentrations", "setting": "[3]; baseline to week 14/ET", "result": "not statistically significant"},
      {"measurement": "ItchRO average daily score (0-10 scale), Change from baseline to week 14/ET", "setting": "[3]; [5]", "result": "−4.6 and −1.7 and −3.7 (2×) and −9.1 and −4.7"},
      {"measurement": "ItchRO average daily score (0-10 scale), Week 14/ET", "setting": "[3]; [5]", "result": "1.3 and 5.1 and 3.1 and 2.3 and 0 (2×)"},
      {"measurement": "Mean conjugated bilirubin levels, increase", "setting": "[3]; overall population", "result": 0.19, "unit": "mg/dL"},
      {"measurement": "total cholesterol, mean change", "setting": "[3]; overall population", "result": -21.2, "unit": "mg/dL"},
      {"measurement": "ITCHRO weekly sum scores, decrease from baseline", "setting": "[3]; overall population, baseline to week 14/ET, 10 mg/day maintenance", "result": 51, "unit": "%"},
      {"measurement": "serum LCL-C concentration, change from baseline", "setting": "[3]; overall population, SD 17.6", "result": -16.3, "unit": "mg/dL"},
      {"measurement": "serum autotaxin concentration, change from baseline", "setting": "[3]; overall population, SD 319", "result": -148, "unit": "ng/mL"},
      {"measurement": "Mean levels of 7αC4, increase from baseline", "setting": "[3]; overall, week 14/ET", "result": 130, "unit": "%"},
      {"measurement": "sBA levels, decrease from baseline", "setting": "[3]; overall, week 14/ET", "result": 38, "unit": "%"},
      {"measurement": "7αC4, mean increase from baseline", "setting": "[3]; overall, week 14/ET, SD 13.6", "result": 11.1, "unit": "ng/mL"},
      {"measurement": "sBA levels, mean change from baseline", "setting": "[3]; overall, week 14/ET, SD 31.4", "result": -14.8, "unit": "µmol/L"},
      {"measurement": "Mean levels of 7αC4, increase from baseline", "setting": "[3]; [6]", "result": 107, "unit": "%"},
      {"measurement": "sBA levels, decrease from baseline", "setting": "[3]; [6]", "result": 45, "unit": "%"},
      {"measurement": "total cholesterol, mean change", "setting": "[3]; [6]", "result": -32.0, "unit": "mg/dL"},
      {"measurement": "ITCHRO weekly sum scores, decrease from baseline", "setting": "[3]; participants with ITCHRO daily score ≥4 out of 10 at baseline (n=6), week 14/ET", "result": 70, "unit": "%"},
      {"measurement": "ITCHRO weekly sum scores, decrease from baseline", "setting": "[3]; participants with any pruritus at baseline (n=18), week 14/ET", "result": 53, "unit": "%"},
      {"measurement": "participants with ITCHRO average daily score improved by >1 point", "setting": "[3]; week 14/ET", "result": 29.6, "unit": "%"},
      {"measurement": "participants with ITCHRO average daily score improved by >3 points", "setting": "[3]; week 14/ET", "result": 22.2, "unit": "%"},
      {"measurement": "multi-parameter responders among mild PFIC 2 patients", "setting": "[4]; 280 μg/kg QD", "result": "1 of 7"},
      {"measurement": "moderate PFIC 2 patients responsive only at the higher dose (high-dose responder)", "setting": "[4]; 280 μg/kg twice daily", "result": "1 of 12"},
      {"measurement": "responders among moderate PFIC 2 patients", "setting": "[4]; 280 μg/kg/day by week 48", "result": "5 of 12"},
      {"measurement": "Multi-parameter Responders (%)", "setting": "[4]; Mild PFIC 2 (N = 7)", "result": "(14.3%)"},
      {"measurement": "Multi-parameter Responders (%)", "setting": "[4]; Moderate PFIC 2 (N = 12)", "result": "(50%)"},
      {"measurement": "Multi-parameter Responders (%)", "setting": "[4]; Truncating BSEP (N = 6)", "result": "(0%)"},
      {"measurement": "multi-parameter response", "setting": "[4]; all PFIC 1 patients and all patients harboring a truncating ABCB11 mutation", "result": "not multi-parameter responders"},
      {"measurement": "increase in C4 levels relative to baseline", "setting": "[4]; all low-dose responders (280 μg/kg/day), within 13 weeks of first administration", "result": "at least 2.5 fold"},
      {"measurement": "serum ALT, AST, and bilirubin concentrations over time", "setting": "[4]; all low-dose responders, within 2-6 months of first administration", "result": "normalized or only mildly elevated"},
      {"measurement": "height Z-score", "setting": "[4]; high dose responder, following treatment response on sBA", "result": "increase in height Z-score"},
      {"measurement": "7αC4:sBA ratio", "setting": "[4]; high-dose responder, upon administration of 560 μg/kg/day", "result": 1770, "unit": "times baseline"},
      {"measurement": "cholestasis markers after dose increase", "setting": "[4]; low-dose responder losing response in long-term extension, raised to 280 μg/kg BID at 640-730 days", "result": "sBA concentration decreased, severity of pruritus decreased, serum 7αC4 concentration increased, and 7αC4:sBA ratio increased"},
      {"measurement": "7αC4 concentrations at 48 weeks relative to baseline", "setting": "[4]; low-dose responders (range, 3-43)", "result": 14, "unit": "× baseline"},
      {"measurement": "growth (height Z-score change from baseline)", "setting": "[4]; low-dose responders, FIG. 4", "result": "improved growth relative to baseline"},
      {"measurement": "7αC4:sBA ratio, mean change from baseline at week 48", "setting": "[4]; non-responders (range, 0.43-12)", "result": 1.9, "unit": "times baseline ratio"},
      {"measurement": "duration of maintained response", "setting": "[4]; responders in the INDIGO study", "result": "for over a year and for up to or beyond 5 years"},
      {"measurement": "Response: reduction in BAs", "setting": "[4]; subject 080051-L, mild PFIC 2", "result": ">70", "unit": "%"},
      {"measurement": "response at the higher dose in prior non-responders", "setting": "[4]; three non-truncating PFIC 2 patients without response at 280 μg/kg/day given 560 μg/kg/day", "result": "one (mentioned above) responded at the higher dose"}
    ]}
  ]
}
